Tests used:
hERG channel = molecular target: T1, hERG channel (Homo sapiens, UniProt Q12809); assay: hERG electrophysiology, automated whole-cell patch clamp (Patchliner); format: cell-based
T1 construct: expressed in transfected cells
Procedure, shortened: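 Currents were recorded at 0.3 Hz from −80 mV, stepping to +20 mV then −50 mV (300 ms each), in stably transfected CHO-K1 cells. Concentrations (30 nM–100 μM, up to 0.3% DMSO) were added sequentially without washout. IC50 came from Hill fits of control-normalized AUC/peak of each train's final pulse.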

Kv1.3 potassium channel = molecular target: T2, Kv1.3 potassium channel (Homo sapiens, UniProt P22001); assay: Kv1.3 potassium channel blocker activity, automated whole-cell patch clamp (Patchliner); format: cell-based
T2 construct: expressed in transfected cells
Procedure, shortened: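 IC50 came from Hill-equation fits of peak and AUC currents from the final pulse at each concentration, normalized to compound-free control. Compounds applied consecutively at 30 nM to 100 μM (up to 0.3% DMSO) to Kv1.3-expressing CHO-K1 cells, P/4 leak subtraction. Pulses were +40 mV, 100 ms, from −90 mV holding, at 0.1 Hz on Patchliner.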

[1] = CHO-K1 cells stably expressing hERG, +20 mV 300 ms, -50 mV 300 ms tail current, 0.3 Hz
[2] = CHO-K1 cells stably expressing Kv1.3, 100 ms pulses from -90 mV to +40 mV, 0.1 Hz
[3] = hERG channel, whole-cell patch clamp
[4] = Kv1.3 potassium channel, whole-cell patch clamp

T1 sequence (Q12809 whole entry): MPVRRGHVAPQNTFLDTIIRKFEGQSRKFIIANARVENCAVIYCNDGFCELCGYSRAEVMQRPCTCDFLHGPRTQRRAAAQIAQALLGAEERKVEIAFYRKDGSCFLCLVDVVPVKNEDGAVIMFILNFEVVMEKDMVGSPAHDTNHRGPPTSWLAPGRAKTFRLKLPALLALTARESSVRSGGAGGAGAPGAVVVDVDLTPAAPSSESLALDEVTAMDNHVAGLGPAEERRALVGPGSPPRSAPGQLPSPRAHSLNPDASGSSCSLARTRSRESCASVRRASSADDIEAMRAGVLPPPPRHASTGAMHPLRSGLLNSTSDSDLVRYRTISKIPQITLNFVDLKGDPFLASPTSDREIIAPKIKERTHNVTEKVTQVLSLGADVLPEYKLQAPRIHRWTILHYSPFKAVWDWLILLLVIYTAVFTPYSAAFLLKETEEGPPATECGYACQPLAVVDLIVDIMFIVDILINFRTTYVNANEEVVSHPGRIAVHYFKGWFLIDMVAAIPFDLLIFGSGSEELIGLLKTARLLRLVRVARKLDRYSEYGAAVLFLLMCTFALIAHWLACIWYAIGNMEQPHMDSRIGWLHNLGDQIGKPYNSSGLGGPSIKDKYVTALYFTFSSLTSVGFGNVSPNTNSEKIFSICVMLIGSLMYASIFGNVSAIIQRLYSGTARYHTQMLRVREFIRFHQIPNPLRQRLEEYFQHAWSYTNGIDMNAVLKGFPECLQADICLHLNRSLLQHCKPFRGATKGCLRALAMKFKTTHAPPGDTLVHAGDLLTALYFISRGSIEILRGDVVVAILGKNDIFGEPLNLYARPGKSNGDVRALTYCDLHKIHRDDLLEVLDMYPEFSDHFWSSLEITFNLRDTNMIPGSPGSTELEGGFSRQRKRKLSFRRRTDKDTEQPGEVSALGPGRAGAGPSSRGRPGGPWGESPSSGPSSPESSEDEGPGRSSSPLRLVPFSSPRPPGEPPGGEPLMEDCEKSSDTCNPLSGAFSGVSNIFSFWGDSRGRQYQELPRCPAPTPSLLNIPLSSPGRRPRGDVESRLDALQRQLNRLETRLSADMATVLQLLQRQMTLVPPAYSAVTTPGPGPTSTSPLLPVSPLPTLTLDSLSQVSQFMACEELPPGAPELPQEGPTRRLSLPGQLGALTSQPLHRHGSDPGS
T2 sequence (P22001 whole entry): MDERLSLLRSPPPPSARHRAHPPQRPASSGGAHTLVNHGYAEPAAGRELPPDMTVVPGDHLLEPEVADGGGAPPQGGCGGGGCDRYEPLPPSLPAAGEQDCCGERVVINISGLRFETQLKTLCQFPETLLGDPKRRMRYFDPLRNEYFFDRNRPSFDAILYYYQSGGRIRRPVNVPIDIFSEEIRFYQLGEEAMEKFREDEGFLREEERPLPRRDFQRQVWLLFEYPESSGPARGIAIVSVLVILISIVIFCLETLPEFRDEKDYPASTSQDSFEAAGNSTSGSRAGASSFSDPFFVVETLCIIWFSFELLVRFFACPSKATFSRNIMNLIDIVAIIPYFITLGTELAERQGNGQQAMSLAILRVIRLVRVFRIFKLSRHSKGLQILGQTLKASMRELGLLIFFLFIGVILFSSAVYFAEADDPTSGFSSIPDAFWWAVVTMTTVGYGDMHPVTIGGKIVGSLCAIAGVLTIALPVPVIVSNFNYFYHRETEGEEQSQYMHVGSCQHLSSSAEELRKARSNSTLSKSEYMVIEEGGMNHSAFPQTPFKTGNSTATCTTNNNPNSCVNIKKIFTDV

| IC50 (Kv1.3 potassium channel; [2]) [µM] | IC50 (Kv1.3 potassium channel; [4]) [µM] | Structure (SMILES) | IC50 (hERG channel; [1]) [µM] | IC50 (hERG channel; [3]) [µM] |
| --- | --- | --- | --- | --- |
| < 1 |  | CC[C@@H](O)C(=O)N1CC(=O)N2CC[C@@H](c3c(O)ccc(Cl)c3Cl)C[C@H]2C1 [Compound 21, (8R,9aS)-8-(2,3-dichloro-6-hydroxyphenyl)-2-[(2R)-2-hydroxybutanoyl]-hexahydro-1H-pyrido[1,2-a]pyrazin-4-one] | < 30 |  |
| < 1 |  | O=C([C@@H](O)CO)N1CC(=O)N2CC[C@@H](c3c(O)ccc(Cl)c3Cl)C[C@H]2C1 [Compound 23, (8R,9aS)-8-(2,3-dichloro-6-hydroxyphenyl)-2-[(2S)-2,3-dihydroxypropanoyl]-hexahydro-1H-pyrido[1,2-a]pyrazin-4-one] | > 30 |  |
| < 1 |  | CO[C@H](CO)C(=O)N1CC(=O)N2CC[C@@H](c3c(O)ccc(Cl)c3Cl)C[C@H]2C1 [Compound 29, (8R,9aS)-8-(2,3-dichloro-6-hydroxyphenyl)-2-[(2R)-3-hydroxy-2-methoxypropanoyl]-hexahydro-1H-pyrido[1,2-a]pyrazin-4-one] | > 30 |  |
| < 1 |  | O=C([C@@H](O)CO)N1CC(=O)N2C[C@@H](c3c(O)ccc(Cl)c3Cl)C[C@H]2C1 [Compound 34, (7R,8aS)-7-(2,3-dichloro-6-hydroxyphenyl)-2-[(2S)-2,3-dihydroxypropanoyl]-hexahydropyrrolo [1,2-a]pyrazin-4-one] | > 30 |  |
| < 1 |  | O=C([C@H](O)CO)N1CC(=O)N2C[C@@H](c3c(O)ccc(Cl)c3Cl)C[C@H]2C1 [Compound 42, (7R,8aS)-7-(2,3-dichloro-6-hydroxyphenyl)-2-((R)-2,3-dihydroxypropanoyl) hexahydropyrrolo[1,2-a]pyrazin-4(1H)-one] | > 30 |  |
| < 1 |  | COC[C@H](O)C(=O)N1CC(=O)N2CC[C@@H](c3c(O)ccc(Cl)c3Cl)C[C@H]2C1 [Compound 44, (8R,9aS)-8-(2,3-dichloro-6-hydroxyphenyl)-2-[(2S)-2-hydroxy-3-methoxypropanoyl]-hexahydro-1H-pyrido[1,2-a]pyrazin-4-one] | > 30 |  |
| < 1 |  | C[C@@H](CO)C(=O)N1CC(=O)N2CC[C@@H](c3c(O)ccc(Cl)c3Cl)C[C@H]2C1 [Compound 45, (8R,9aS)-8-(2,3-dichloro-6-hydroxyphenyl)-2-((S)-3-hydroxy-2-methylpropanoyl)octahydro-4H-pyrido[1,2-a]pyrazin-4-one] | > 30 |  |
| < 1 |  | C[C@H](O)C(=O)N1CC(=O)N2CC[C@@H](c3c(O)ccc(Cl)c3Cl)C[C@H]2C1 [Compound 49, (8R,9aS)-8-(2,3-dichloro-6-hydroxyphenyl)-2-[(2S)-2-hydroxypropanoyl]-hexahydro-1H-pyrido[1,2-a]pyrazin-4-one] | > 30 |  |
| < 1 |  | C[C@H](CO)C(=O)N1CC(=O)N2CC[C@@H](c3c(O)ccc(Cl)c3Cl)C[C@H]2C1 [Compound 54, (8R,9aS)-8-(2,3-dichloro-6-hydroxyphenyl)-2-((R)-3-hydroxy-2-methylpropanoyl)octahydro-4H-pyrido[1,2-a]pyrazin-4-one] | > 30 |  |
|  | < 1 | O=C(CO)N1CC(=O)N2CC[C@@H](c3c(O)ccc(Cl)c3Cl)C[C@H]2C1 [Compound 63, (8R,9aS)-8-(2,3-dichloro-6-hydroxyphenyl)-2-(2-hydroxyacetyl)-hexahydro-1H-pyrido[1,2-a]pyrazin-4-one] |  | < 30 |
|  | < 1 | O=C([C@@H](O)CO)N1CC(=O)N2CC[C@H](c3c(O)ccc(Cl)c3Cl)C[C@@H]2C1 [Compound 64, (8S,9aR)-8-(2,3-dichloro-6-hydroxyphenyl)-2-[(2S)-2,3-dihydroxy-propanoyl]-hexahydro-1H-pyrido[1,2-a]pyrazin-4-one] |  | > 30 |

Continued, compound first:

| Structure (SMILES) | IC50 (Kv1.3 potassium channel; [2]) [µM] | IC50 (Kv1.3 potassium channel; [4]) [µM] | IC50 (hERG channel; [1]) [µM] | IC50 (hERG channel; [3]) [µM] |
| --- | --- | --- | --- | --- |
| O=C(CCO)N1CC(=O)N2C[C@@H](c3c(O)ccc(Cl)c3Cl)C[C@H]2C1 [Compound 17, (7R,8aS)-7-(2,3-dichloro-6-hydroxyphenyl)-2-(3-hydroxypropanoyl)hexa-hydropyrrolo[1,2-a]pyrazin-4(1H)-one] | < 1 |  | > 30 |  |
| O=C(CO)N1CCC(=O)N2C[C@@H](c3c(O)ccc(Cl)c3Cl)C[C@H]2C1 [Compound 18, (8R,9aS)-8-(2,3-dichloro-6-hydroxyphenyl)-2-(2-hydroxyacetyl)-hexahydro-1H-pyrrolo[1,2-a][1,4]diazepin-5-one] | < 1 |  | > 30 |  |
| O=C(CO)N1CC(=O)N2CC(c3c(O)ccc(Cl)c3Cl)C[C@H]2C1 (stereo partly drawn) [Compound 24, (8aS)-7-(2,3-dichloro-6-hydroxyphenyl)-2-(2-hydroxyacetyl)-hexahydropyrrolo[1,2-a]pyrazin-4-one] | < 1 |  | > 30 |  |
| CC1[C@@H]2C[C@H](c3c(O)ccc(Cl)c3Cl)CCN2C(=O)CN1C(=O)CO (stereo partly drawn) [Compound 25, (8R,9aS)-8-(2,3-dichloro-6-hydroxypheny1)-2-(2-hydroxyacetyl)-1-methyl-hexahydro-1H-pyrido[1,2-a]pyrazin-4-one] | < 1 |  | > 30 |  |
| O=C1CNC[C@@H]2CC(c3c(O)ccc(Cl)c3Cl)CN12 (stereo partly drawn) [Compound 33, (8aS)-7-(2,3-dichloro-6-hydroxyphenyl)-hexahydro-1H-pyrrolo[1,2-a]pyrazin-4-one trifluoroacetic acid] | < 1 |  | < 30 |  |
| CCNC(=O)N1CC(=O)N2C[C@@H](c3c(O)ccc(Cl)c3Cl)C[C@H]2C1 [Compound 35, (7R,8aS)-7-(2,3-dichloro-6-hydroxyphenyl)-N-ethyl-4-oxo-hexahydropyrrolo[1,2-a]pyrazine-2-carboxamide] | < 1 |  | > 30 |  |
| CNC(=O)N1CC(=O)N2C[C@@H](c3c(O)ccc(Cl)c3Cl)C[C@H]2C1 [Compound 37, (7R,8aS)-7-(2,3-dichloro-6-hydroxyphenyl)-N-methyl-4-oxo-hexahydropyrrolo[1,2-a]pyrazine-2-carboxamide] | < 1 |  | > 30 |  |
| O=C(CO)N1CC(=O)N2CC[C@@H](c3c(O)cc(Cl)c(Cl)c3Cl)C[C@H]2C1 [Compound 38, (8R,9aS)-2-(2-hydroxyacetyl)-8-(2,3,4-trichloro-6-hydroxyphenyl)octahydro-4H-pyrido[1,2-a]pyrazin-4-one] | < 1 |  | > 30 |  |
| CN(C)CC(=O)N1CC(=O)N2CC[C@@H](c3c(O)ccc(Cl)c3Cl)C[C@H]2C1 [Compound 40, (8R,9aS)-8-(2,3-dichloro-6-hydroxyphenyl)-2-[2-(dimethylamino)acetyl]-hexahydro-1H-pyrido[1,2-a]pyrazin-4-one] | < 1 |  | < 30 |  |
| N#CCC(=O)N1CC(=O)N2C[C@@H](c3c(O)ccc(Cl)c3Cl)C[C@H]2C1 [Compound 41, 3-[(7R,8aS)-7-(2,3-dichloro-6-hydroxypheny1)-4-oxo-hexahydropyrrolo[1,2-a]pyrazin-2-yl]-3-oxopropanenitrile] | < 1 |  | > 30 |  |
| C[C@H]1C(=O)N2CC[C@@H](c3c(O)ccc(Cl)c3Cl)C[C@H]2CN1C(=O)CO [Compound 46, (3S,8R,9aS)-8-(2,3-dichloro-6-hydroxyphenyl)-2-(2-hydroxyacetyl)-3-methyloctahydro-4H-pyrido[1,2-a]pyrazin-4-one] | < 1 |  | > 30 |  |
| O=C(N1CC(O)C1)N1CC(=O)N2C[C@@H](c3c(O)ccc(Cl)c3Cl)C[C@H]2C1 [Compound 47, (7R,8aS)-7-(2,3-dichloro-6-hydroxypheny1)-2-(3-hydroxyazetidine-1-carbonyl)-hexahydropyrrolo[1,2-a]pyrazin-4-one] | < 1 |  | > 30 |  |
| O=C1[C@@H](CO)OC[C@@H]2C[C@H](c3c(O)ccc(Cl)c3Cl)CN12 [Compound 50, (3R,7R,8aS)-7-(2,3-dichloro-6-hydroxyphenyl)-3-(hydroxymethyl)-hexahydropyrrolo[2,1-c][1,4]oxazin-4-one] | < 1 |  | > 30 |  |
| NC(=O)N1CC(=O)N2C[C@@H](c3c(O)ccc(Cl)c3Cl)C[C@H]2C1 [Compound 55, (7R,8aS)-7-(2,3-dichloro-6-hydroxyphenyl)-4-oxo-hexahydropyrrolo[1,2-a]pyrazine-2-carboxamide] | < 1 |  | > 30 |  |
| O=C1[C@@H](CO)NC[C@@H]2C[C@H](c3c(O)ccc(Cl)c3Cl)CCN12 [Compound 57, (3R,8R,9aS)-8-(2,3-dichloro-6-hydroxyphenyl)-3-(hydroxymethyl)-octahydropyrido[1,2-a]pyrazin-4-one] | < 1 |  | > 30 |  |
| C[C@H](O)CC(=O)N1CC(=O)N2C[C@@H](c3c(O)ccc(Cl)c3Cl)C[C@H]2C1 [Compound 59, (7R,8aS)-7-(2,3-dichloro-6-hydroxyphenyl)-2-[(3S)-3-hydroxybutanoyl]-hexahydropyrrolo[1,2-a]pyrazin-4-one] | < 1 |  | > 30 |  |
| O=C(C(CO)CO)N1CC(=O)N2C[C@@H](c3c(O)ccc(Cl)c3Cl)C[C@H]2C1 [Compound 65, (7R,8aS)-7-(2,3-dichloro-6-hydroxyphenyl)-2-[3-hydroxy-2-(hydroxymethyl)propanoyl]-hexa-hydropyrrolo[1,2-a]pyrazin-4-one] |  | < 1 |  | > 30 |
| CCO[C@H](CO)C(=O)N1CC(=O)N2C[C@@H](c3c(O)ccc(Cl)c3Cl)C[C@H]2C1 [Compound 66, (7R,8aS)-7-(2,3-dichloro-6-hydroxyphenyl)-2-[(2R)-2-ethoxy-3-hydroxypropanoyl]-hexahydropyrrolo[1,2-a]pyrazin-4-one] |  | < 1 |  | > 30 |

— patent US20230049231A1 (priority 2019, published 2023)
